According to patent US20210030714A1, “COMPOUNDS FOR USE IN THE TREATMENT OF BRAIN DISEASES” (UNIVERSITA DEGLI STUDI DI ROMA "LA SAPIENZA", priority 2018, published 2021):
Entries after “also recorded” stand apart in the source; their conditions may differ.

Experiments:
[1] = GlaB brain level concentration by HPLC-ESI-MS after intranasal administration; type: in vivo, mice
Procedure: For HPLC analysis, mice were treated as above and sacrificed two hours post one single nasal administration; brains were collected and frozen (−80° C.) until use.
HPLC analyses were performed on brain samples from mice treated with GlaB/PEG-Cholane. The brain sample (500 mg), previously stored at −80° C. for 24 hours, was homogenized with 1 mL of a Phosphate Buffered Saline solution, PBS, using an ultrasound probe. A solution of ZnSO4 (0.1 M in H2O, 1 mL) and acetonitrile (1 mL) were added to the mixture, which was further homogenized with ultrasound for 15 minutes. Subsequently, the brain homogenate was stirred for 1 hour at room temperature and was then centrifuged at 3000 g for 5 min at T=4° C. The supernatant was collected. The following procedure to obtain a brain extract was repeated twice. Acetonitrile (1 mL) was added to the brain residue, stirred for 30 minutes at room temperature, then centrifuged at 3000 g for 5 min at T=4° C. and the supernatant collected. Brain extracts samples were centrifuged for five minutes at 5000 rpm and 20 μL of supernatant injected into the HPLC without further treatments.
The HPLC chromatographic system used was an UltiMate 3000 RS system (Thermo Fisher Dionex Sunnyvale, Calif.), equipped with an UltiMate 3000 LPG-3400RS Low Pressure Mixing Biocompatible Gradient Pump, an in-line split-loop well plate sampler, a thermostated column ventilated compartment (temperature range: 5-110° C.) and a diode array detector (UltiMate 3000 DAD-3000RS Rapid Separation Diode Array Detector, up to 200 Hz acquisition rate) with a low dispersion 13 μL flow cell. […]
Calibration standards ranged from 0.128 to 8.2 μg/mL for UV curve (y=0.2574x−0.2042, R2=0.9997) with a Limit of Quantitation, LOQ, (defined for a signal-to-noise ratio >10) of 4.1 ng on column, whereas calibration curve ranged 0.128-8.2 μg/ml for MS (y=11176x−1505.9) showing a correlation coefficient (r^2) equal to 0.9991.
A known amount (0.5 μg/mL) of the GlaB analyte (a spike) was added to treated brain sample. The samples and the samples plus spike were then analyzed. […]

[2] = tested on: GL261 murine glioma cells; assay: GL261 cell growth assay (MTT salt); type: cell-based; conditions: 5 μM GlaB, in vitro, starting from 48 h of treatment, N=3, p<0.001
Procedure: The GL261 murine glioma cells (Leibniz-Institute DMSZ, ACC802) are grown in an incubator at 37° C. and 5% CO2 in a culture medium containing D-MEM (GIBCO), 20% fetal bovine serum (GIBCO), antibiotics (100 IU/ml penicillin G, 100 μg/ml streptomycin, 2.5 μg/ml amphotericin B), 2 mM glutamine and 1 mM pyruvate sodium.
GL261 murine glioma cells were seeded in culture medium in 96-well plates (5000 cells/well). After 4 h they were treated with 5 μM GlaB (C. Ingallina, P. M. Costa, F. Ghirga, R. Klippstein, J. T. Wang, S. Berardozzi, N. Hodgins, P. Infante, S. M. Pollard, B. Botta, K. T. Al-Jamal. Polymeric glabrescione B nanocapsules for passive targeting of Hedgehog-dependent tumor therapy in vitro. Nanomedicine, (2017), 12(7), 711-728. DOI: 10.2217/nnm-2016-0388) or the vehicle in which it is dissolved (DMSO) and every 24 h for three days their growth was evaluated using the dehydrogenation method of MTT salt (3-(4,5-dimetiltiazol-2-yl)-2,5-diphenyltetrazolium bromide, Sigma-Aldrich). The MTT salt was added to each well containing culture medium at the concentration of 0.5 mg/ml, and after 2 h of incubation at 37° C., cell growth was measured by measuring the spectrophotometer, at a wavelength of 570 nm, the absorbance values related to the amount of MTT salt transformed into formazan (insoluble violet-colored salt) simultaneously by live control cells and cells treated with GlaB.

[3] = tested on: murine glioma GL261 cells; assay: Orthotopic GL261 glioma in mice, tumor volume (procedure A); type: in vivo, mice (C57BL/6); conditions: for tumor volume: every two days, N=7, vehicle ethanol:2-hydroxypropyl-beta-cyclodextrin 1:5
Procedure: Male wild type (C57BL/6) mice were inoculated with murine glioma cells (GL261, Leibniz-Institute DMSZ, ACC802) at the age of 8 weeks (animals weighing an average weight of 22 g). After being anesthetized by intraperitoneal injection of 50 mg/kg Zoletil anaesthetic (combination of tiletamine hypochloride and zolazepam hypochloride) associated with 10 mg/kg Rompun (xylazine), the animals were subjected to orthotopic injection (subcortical/striatum, […] anteroposterior, −2 mm lateral to the bregma) of GL261 cells (1×10^5 cells per mouse) using a stereotaxic apparatus to accurately and reproducibly reach the right striatal region. The cells, resuspended in 5 μl of phosphate buffer, were injected by the use of a Hamilton syringe connected to the stereotaxic apparatus.
GlaB dissolved in the vehicle constituted by ethanol (Sigma-Aldrich #51976): 2-hydroxypropyl-beta-cyclodextrin (Sigma-Aldrich #C0926) solution (10% (w/v) in H2O) in a 1:5 volume ratio was administered by intraperitoneal injections (ip, 35 mg/kg) and intranasally (in, 4.4 mg/kg), every two days after 7 days from the implantation of tumor cells for a total of 6 days of treatment. Intranasal administration was performed through the so-called “snort delivery”: drops of the medicament were sniffed by the animal, anesthetized with 2.5% Isofluorane, until reaching the upper nasal cavity.
The day after the last administration of GlaB, mice were perfused with phosphate buffer and then 4% PFA and their brain isolated, further fixed and frozen. After about 48 h each frozen brain was cut into subsequent coronal slices, 20 μm thick, collected at 100 μm intervals. The determination of tumor volume was performed by histological staining (hematoxylin and eosin) of the brain slices: the tumor mass is recognizable because it has a darker color compared to the remaining healthy tissue. The tumor volume is calculated through analysis of images obtained under a phase contrast microscope (ECLIPSE Ti-S, Nikon) using commercial software released in the public domain (ImageJ, National Institutes of Health of the United States) able to measure the tumor area in each slice, necessary for volume calculation.

concentration at 2 h ([1]; C57BL/6, mouse, brain, other: nasal administration (intranasal), 1.44 mg/Kg, mice, two hours post one single nasal administration of GlaB/PEG-Cholane, read-out: estimated brain level concentration): 3600 ng/g | GlaB peak in extract ion chromatogram of brain extract (drug reaches brain) ([1]; intranasally GlaB/PEG-Cholane treated mice vs control PEG-Cholane treated mice): presence of GlaB peak | GlaB quantified in brain extract, amount on column ([1]; mice, two hours post one single nasal administration of GlaB/PEG-Cholane, HPLC-MS SIM m/z 451): 6 ng on column
SMILES: COc1cc(OC)c2c(=O)c(-c3ccc(OCC=C(C)C)c(OCC=C(C)C)c3)coc2c1 [GlaB, Glabrescione B]
growth of GL261 tumor cells (MTT absorbance) compared to vehicle (DMSO) [2]: reduce their growth capacity; also recorded: significant reduction | tumor volume reduction ([3]; intranasal formulation in ethanol:2-hydroxypropyl-beta-cyclodextrin solution (1:5 by volume), 4.4 mg/kg): about 70% | glioma volume in vivo compared to control solution ([3]; intranasal, 4.4 mg/kg): significantly reduce glioma volume | tumor volume ([3]; intranasal, 4.4 mg/kg): 0.21 mm³ | glioma volume in vivo compared to control solution ([3]; intraperitoneal, 35 mg/kg): significantly reduce glioma volume | tumor volume ([3]; intraperitoneal, 35 mg/kg): 0.48 mm³
